Reference: patent publication US10392383B2, “3-(1H-benzo[d]imidazol-2-yl)-1H-pyrazolo[4,3-b]pyridines and therapeutic uses thereof” (Samumed, LLC, priority 2015, dated 2019)

Experiments:
[1] = tested on: primary human fibroblasts derived from IPF patients (LL29 cells) treated with TGF-β1; experiment: Inhibition of the fibrotic process: αSMA staining in TGF-β1-treated LL29 fibroblasts; type: cell-based; settings: Fibroblast; for inhibition at 10 µM: LL29 fibroblasts treated with TGF-β1, Table 4, read-out: percent inhibition at 10 μM (given in parentheses for EC50 >10 μM); for EC50: 96 h, LL29 fibroblasts treated with TGF-β1 (20 ng/mL), 4 days, Table 4
Procedure, shortened: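 EC50 from triplicate-well dose-response fits of % αSMA-positive cells, normalized to TGF-β1-stimulated DMSO controls, with SYTOX-positive dead cells excluded. LL29 IPF fibroblasts received compound at 10 μM–1.87 nM (0.1% DMSO) plus 20 ng/mL TGF-β1 for 4 days in 1% FBS medium; above 10 μM, % inhibition at 10 μM reported.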

[2] = tested on: primary human mesenchymal stem cells (hMSCs); experiment: Induction of chondrogenesis in human mesenchymal stem cells (nodule staining with Rhodamine B / Nile Red); type: cell-based; settings: for Emax: TGF-β3 (10 ng/mL) as positive control, read-out: Max. Activity as % TGF-β3 activity; for EC50: concentration required to induce 50% levels of chondrogenesis vs TGF-β3, read-out: Conc (nM) of 50% TGF-β3 activity
Description: Representative compounds were screened using primary human mesenchymal stem cells (hMSCs) to determine their ability to induce chondrogenesis (process by which cartilage is developed).
Human Mesenchymal Stem Cell Culture: Primary human mesenchymal stem cells (hMSCs) were purchased from Lonza (Walkersville, Md.) and expanded in Mesenchymal Stem Cell Growth Media (Lonza). Cells between passage 3 and 6 were used for the experiments.
Compound Screening: Each compound was dissolved in DMSO as a 10 mM stock and used to prepare compound source plates. For the 96 well assay, serial dilution (1:3, 6-point dose-response curves from 2700 nM to 10 nM) and compound transfer was performed using the ECHO 550 (Labcyte, Sunnyvale, Calif.) into 96-well clear bottom assay plates (Greiner Bio-One) with appropriate DMSO backfill for a final DMSO concentration of 0.03%. hMSCs were plated at 20,000 cells/well in 250 μL/well Incomplete Chondrogenic Induction Medium (Lonza; DMEM, dexamethasone, ascorbate, insulin-transferrin-selenium [ITS supplement], gentamycin-amphotericin [GA-1000], sodium pyruvate, proline and L-glutamine). TGF-β3 (10 ng/mL) was used as a positive control for differentiation while negative control wells were treated with 75 nL DMSO for normalization and calculating EC50 values. For the 384 well assay, serial dilution (1:3, 8-point dose-response curves from 5000 nM to 2.2 nM) and compound transfer was performed using the ECHO 550 (Labcyte, Sunnyvale, Calif.) into 384-well clear bottom assay plates (Greiner Bio-One) with appropriate DMSO backfill for a final DMSO concentration of 0.03%. hMSCs were plated at 8,000 cells/well in 80 μL/well Incomplete Chondrogenic Induction Medium (Lonza; DMEM, dexamethasone, ascorbate, insulin-transferrin-selenium [ITS supplement], gentamycin-amphotericin [GA-1000], sodium pyruvate, proline and L-glutamine). TGF-β3 (10 ng/mL) was used as a positive control for differentiation while negative control wells were treated with 25 nL DMSO for normalization and calculating EC50 values. Cells were incubated at 37° C. and 5% CO2 for 6 days. To image chondrogenic nodules, the cells were fixed using 4% formaldehyde (Electron Microscopy Sciences), and stained with 2 μg/mL Rhodamine B (Sigma-Aldrich) and 20 μM Nile Red (Sigma-Aldrich) [Johnson K., et. al, A Stem Cell-Based Approach to Cartilage Repair, Science, (2012), 336(6082), 717-721]. The nodules imaged (25 images per well for 96 well plates and 9 images per well for 384 well plates at 10× magnification) by excitation at 531 nm and emission at 625 nm and quantified using the CellInsight CX5 (Thermo Scientific). Area of nodules in each well was normalized to the average of 3 DMSO treated wells on the same plate using Excel (Microsoft Inc.). The normalized averages (fold change over DMSO) of 2 or 3 replicate wells for each compound concentration were calculated. Due to solubility limitations of some of the compounds, curve fitting was incomplete leading to inaccurate EC50 determinations.
Using TGF-β3 as a positive control, the concentration of representative compounds required to induce 50% levels of chondrogenesis is reported. In addition, the maximum activity of each compound and the respective dose that each compound reached maximum chondrogenesis activity is reported.

Structure (SMILES): CCCC(=O)Nc1cncc(-c2ccc3[nH]nc(-c4nc5c(-c6ccncc6)cccc5[nH]4)c3n2)c1 [Compound 129, N-(5-(3-(4-(Pyridin-4-yl)-1H-benzo[d]imidazol-2-yl)-1H-pyrazolo[4,3-b]pyridin-5-yl)pyridin-3-yl)butyramide]
- inhibition at 10 µM [1]: 0%
- EC50 [1]: > 10 µM
- Emax [2]: 59%
- EC50 [2]: 2700 nM

Structure (SMILES): CCNCc1cncc(-c2ccc3[nH]nc(-c4nc5c(-c6ccccn6)cccc5[nH]4)c3n2)c1 [Compound 146, N-((5-(3-(4-(Pyridin-2-yl)-1H-benzo[d]imidazol-2-yl)-1H-pyrazolo[4,3-b]pyridin-5-yl)pyridin-3-yl)methyl)ethanamine]
- EC50 [1]: 3.68 µM
- Emax [2]: 279%
- EC50 [2]: 1670 nM

Structure (SMILES): CCC(=O)Nc1cncc(-c2ccc3[nH]nc(-c4nc5c(N6CCCCC6)cccc5[nH]4)c3n2)c1 [Compound 169, N-(5-(3-(4-(Piperidin-1-yl)-1H-benzo[d]imidazol-2-yl)-1H-pyrazolo[4,3-b]pyridin-5-yl)pyridin-3-yl)propionamide]
- EC50 [1]: 0.158 µM
- Emax [2]: 66%
- EC50 [2]: 1670 nM

Structure (SMILES): CN(C)Cc1cncc(-c2ccc3[nH]nc(-c4nc5c(N6CCCCC6)cccc5[nH]4)c3n2)c1 [Compound 181, N,N-dimethyl-1-(5-(3-(4-(piperidin-1-yl)-1H-benzo[d]imidazol-2-yl)-1H-pyrazolo[4,3-b]pyridin-5-yl)pyridin-3-yl)methanamine]
- EC50 [1]: 0.785 µM
- Emax [2]: 52%
- EC50 [2]: 10 nM

Structure (SMILES): CN1CCN(c2cccc3[nH]c(-c4n[nH]c5ccc(-c6cncc(N)c6)nc45)nc23)CC1 [Compound 227, 5-(3-(4-(4-Methylpiperazin-1-yl)-1H-benzo[d]imidazol-2-yl)-1H-pyrazolo [4,3-b]pyridin-5-yl)pyridin-3-amine]
- inhibition at 10 µM [1]: 32.1%
- EC50 [1]: > 10 µM
- Emax [2]: 50%

Structure (SMILES): CC(C)C(=O)Nc1cncc(-c2ccc3[nH]nc(-c4nc5c(N6CCN(C)CC6)cccc5[nH]4)c3n2)c1 [Compound 233, N-(5-(3-(4-(4-Methylpiperazin-1-yl)-1H-benzo[d]imidazol-2-yl)-1H-pyrazolo[4,3-b]pyridin-5-yl)pyridin-3-yl)isobutyramide]
- inhibition at 10 µM [1]: 24.7%
- EC50 [1]: > 10 µM
- Emax [2]: 52%
- EC50 [2]: 30 nM

Structure (SMILES): O=C(Cc1ccccc1)Nc1cncc(-c2ccc3[nH]nc(-c4nc5ccccc5[nH]4)c3n2)c1 [Compound 262, N-(5-(3-(1H-Benzo[d]imidazol-2-yl)-1H-pyrazolo[4,3-b]pyridin-5-yl)pyridin-3-yl)-2-phenylacetamide]
- inhibition at 10 µM [1]: 0%
- EC50 [1]: > 10 µM
- Emax [2]: 37%

Structure (SMILES): Fc1cccc(-c2cccc3[nH]c(-c4n[nH]c5ccc(C6=CCNCC6)nc45)nc23)c1 [Compound 506, 3-(4-(3-Fluorophenyl)-1H-benzo[d]imidazol-2-yl)-5-(1,2,3,6-tetrahydropyridin-4-yl)-1H-pyrazolo[4,3-b]pyridine]
- EC50 [1]: 1.6 µM
- Emax [2]: 42%

Structure (SMILES): Fc1cccc(-c2cccc3[nH]c(-c4n[nH]c5ccc(-c6cn[nH]c6)nc45)nc23)c1 [Compound 507, 3-(4-(3-Fluorophenyl)-1H-benzo[d]imidazol-2-yl)-5-(1H-pyrazol-4-yl)-1H-pyrazolo[4,3-b]pyridine]
- EC50 [1]: 2.98 µM
- Emax [2]: 53%

Structure (SMILES): Fc1cccc(-c2cccc3[nH]c(-c4n[nH]c5ccc(-c6cnccn6)nc45)nc23)c1 [Compound 520, 3-(4-(3-Fluorophenyl)-1H-benzo[d]imidazol-2-yl)-5-(pyrazin-2-yl)-1H-pyrazolo[4,3-b]pyridine]
- EC50 [1]: 4.29 µM
- Emax [2]: 64%
- EC50 [2]: 2 nM

Structure (SMILES): CN(C)CCOc1cncc(-c2ccc3[nH]nc(-c4nc5c(-c6cccs6)cccc5[nH]4)c3n2)c1 [Compound 707, N,N-Dimethyl-2-((5-(3-(4-(thiophen-2-yl)-1H-benzo[d]imidazol-2-yl)-1H-pyrazolo[4,3-b]pyridin-5-yl)pyridin-3-yl)oxy)ethan-1-amine]
- EC50 [1]: 1.35 µM
- Emax [2]: 142%
- EC50 [2]: 10 nM

Structure (SMILES): CN(C)CC(=O)Nc1cncc(-c2ccc3[nH]nc(-c4nc5c(-c6cccc(F)c6)cccc5[nH]4)c3n2)c1 [Compound 969, 2-(Dimethylamino)-N-(5-(3-(4-(3-fluorophenyl)-1H-benzo[d]imidazol-2-yl)-1H-pyrazolo[4,3-b]pyridin-5-yl)pyridin-3-yl)acetamide]
- EC50 [1]: 2.07 µM
- Emax [2]: 44%

Structure (SMILES): COc1cccc(-c2cccc3[nH]c(-c4n[nH]c5ccc(-c6cccnc6)nc45)nc23)c1 [Compound 994, 3-(4-(3-Methoxyphenyl)-1H-benzo[d]imidazol-2-yl)-5-(pyridin-3-yl)-1H-pyrazolo[4,3-b]pyridine]
- EC50 [1]: 1.05 µM
- Emax [2]: 70%
- EC50 [2]: 100 nM

Structure (SMILES): COc1cccc(-c2cccc3[nH]c(-c4n[nH]c5ccc(-c6cncc(NC(=O)Cc7ccccc7)c6)nc45)nc23)c1 [Compound 1000, N-(5-(3-(4-(3-Methoxyphenyl)-1H-benzo[d]imidazol-2-yl)-1H-pyrazolo[4,3-b]pyridin-5-yl)pyridin-3-yl)-2-phenylacetamide]
- EC50 [1]: 2.27 µM
- Emax [2]: 50%
- EC50 [2]: 900 nM

Structure (SMILES): CC(C)CC(=O)Nc1cncc(-c2ccc3[nH]nc(-c4nc5c(-c6ccc(Cl)s6)cccc5[nH]4)c3n2)c1 [Compound 1037, N-(5-(3-(4-(5-Chlorothiophen-2-yl)-1H-benzo[d]imidazol-2-yl)-1H-pyrazolo [4,3-b]pyridin-5-yl)pyridin-3-yl)-3-methylbutanamide]
- EC50 [1]: 1.39 µM
- Emax [2]: 56%
- EC50 [2]: 10 nM

Structure (SMILES): CC(C)(C)C(=O)Nc1cncc(-c2ccc3[nH]nc(-c4nc5c(-c6ccc(Cl)s6)cccc5[nH]4)c3n2)c1 [Compound 1043, N-(5-(3-(4-(5-chlorothiophen-2-yl)-1H-benzo[d]imidazol-2-yl)-1H-pyrazolo[4,3-b]pyridin-5-yl)pyridin-3-yl)pivalamide]
- EC50 [1]: 2.33 µM
- Emax [2]: 65%
- EC50 [2]: 10 nM

Structure (SMILES): Clc1ccc(-c2cccc3[nH]c(-c4n[nH]c5ccc(-c6cncc(CN7CCCC7)c6)nc45)nc23)s1 [Compound 1049, 3-(4-(5-Chlorothiophen-2-yl)-1H-benzo[d]imidazol-2-yl)-5-(5-(pyrrolidin-1-ylmethyl)pyridin-3-yl)-1H-pyrazolo[4,3-b]pyridine]
- EC50 [1]: 0.733 µM
- Emax [2]: 408%

Structure (SMILES): O=C(Nc1cncc(-c2ccc3[nH]nc(-c4nc5c(-c6ccc(Cl)s6)cccc5[nH]4)c3n2)c1)C1CCC1 [Compound 1056, N-(5-(3-(4-(5-Chlorothiophen-2-yl)-1H-benzo[d]imidazol-2-yl)-1H-pyrazolo [4,3-b]pyridin-5-yl)pyridin-3-yl)cyclobutanecarboxamide]
- EC50 [1]: 2.36 µM
- Emax [2]: 100%
- EC50 [2]: 10 nM

Structure (SMILES): O=C(Nc1cncc(-c2ccc3[nH]nc(-c4nc5c(-c6ccccc6F)cccc5[nH]4)c3n2)c1)C(F)(F)F [Compound 1126, 2,2,2-Trifluoro-N-(5-(3-(4-(2-fluorophenyl)-1H-benzo[d]imidazol-2-yl)-1H-pyrazolo[4,3-b]pyridin-5-yl)pyridin-3-yl)acetamide]
- EC50 [1]: 2.29 µM
- Emax [2]: 40%

Structure (SMILES): CN1CCN(c2cccc3[nH]c(-c4n[nH]c5ccc(-c6cncc(NC(=O)C(F)(F)F)c6)nc45)nc23)CC1 [Compound 1127, 2,2,2-Trifluoro-N-(5-(3-(4-(4-methylpiperazin-1-yl)-1H-benzo[d]imidazol-2-yl)-1H-pyrazolo[4,3-b]pyridin-5-yl)pyridin-3-yl)acetamide]
- EC50 [1]: 8.31 µM
- Emax [2]: 51%
- EC50 [2]: 30 nM
